In the NIST ThermoML archive (doi:10.1016/j.fluid.2007.04.030):
Numbers after ± are expanded uncertainties.

Key:
[1] = 101 kPa, Liquid
[2] = xn = mol fraction of the nth substance listed; conditions: 101 kPa, Liquid

CCCCCO [pentan-1-ol]
[1]
Conditions	mass density [kg/m3]
283.15 K	822.42 ± 0.69
288.15 K	818.79 ± 0.7
293.15 K	815.13 ± 0.7
298.15 K	811.45 ± 0.71
303.15 K	807.74 ± 0.72
308.15 K	804.01 ± 0.72
313.15 K	800.24 ± 0.73
318.15 K	796.43 ± 0.73
323.15 K	792.57 ± 0.74
328.15 K	788.67 ± 0.75
333.15 K	784.72 ± 0.75

CO [methanol]
[1]
Conditions	mass density [kg/m3]
283.15 K	801.08 ± 0.56
288.15 K	796.41 ± 0.57
293.15 K	791.71 ± 0.58
298.15 K	787.01 ± 0.59
303.15 K	782.29 ± 0.6
308.15 K	777.55 ± 0.61
313.15 K	772.78 ± 0.62
318.15 K	767.97 ± 0.63
323.15 K	763.12 ± 0.64
328.15 K	758.23 ± 0.65
333.15 K	753.29 ± 0.66

CCO [ethanol]
[1]
Conditions	mass density [kg/m3]
283.15 K	797.96 ± 0.57
288.15 K	793.71 ± 0.58
293.15 K	789.44 ± 0.59
298.15 K	785.15 ± 0.6
303.15 K	780.83 ± 0.6
308.15 K	776.48 ± 0.61
313.15 K	772.09 ± 0.62
318.15 K	767.65 ± 0.63
323.15 K	763.17 ± 0.64
328.15 K	758.63 ± 0.65
333.15 K	754.01 ± 0.66

CC(C)O [propan-2-ol]
[1]
Conditions	mass density [kg/m3]
283.15 K	793.31 ± 0.74
288.15 K	789.22 ± 0.75
293.15 K	785.08 ± 0.75
298.15 K	780.87 ± 0.76
303.15 K	776.6 ± 0.77
308.15 K	772.25 ± 0.77
313.15 K	767.81 ± 0.78
318.15 K	763.28 ± 0.79
323.15 K	758.64 ± 0.8
328.15 K	753.88 ± 0.8
333.15 K	749.01 ± 0.81

CCCCCCCCO [octan-1-ol]
[1]
Conditions	mass density [kg/m3]
283.15 K	832.13 ± 0.54
288.15 K	828.71 ± 0.55
293.15 K	825.27 ± 0.56
298.15 K	821.81 ± 0.56
303.15 K	818.33 ± 0.57
308.15 K	814.84 ± 0.58
313.15 K	811.31 ± 0.58
318.15 K	807.76 ± 0.59
323.15 K	804.19 ± 0.6
328.15 K	800.58 ± 0.6
333.15 K	796.93 ± 0.61

CCCCCCO [hexan-1-ol]
[1]
Conditions	mass density [kg/m3]
283.15 K	827.82 ± 2.1
288.15 K	824.25 ± 2.1
293.15 K	820.65 ± 2.1
298.15 K	817.03 ± 2.1
303.15 K	813.39 ± 2.1
308.15 K	809.71 ± 2.1
313.15 K	806 ± 2.1
318.15 K	802.27 ± 2.1
323.15 K	798.49 ± 2.1
328.15 K	794.67 ± 2.1
333.15 K	790.8 ± 2.1

CCCCO [butan-1-ol]
[1]
Conditions	mass density [kg/m3]
283.15 K	817.15 ± 0.54
288.15 K	813.38 ± 0.54
293.15 K	809.59 ± 0.55
298.15 K	805.77 ± 0.56
303.15 K	801.92 ± 0.57
308.15 K	798.05 ± 0.58
313.15 K	794.14 ± 0.58
318.15 K	790.19 ± 0.59
323.15 K	786.19 ± 0.6
328.15 K	782.14 ± 0.61
333.15 K	778.03 ± 0.62

CCCO [propan-1-ol]
[1]
Conditions	mass density [kg/m3]
283.15 K	811.57 ± 1.2
288.15 K	807.62 ± 1.2
293.15 K	803.63 ± 1.2
298.15 K	799.62 ± 1.2
303.15 K	795.58 ± 1.2
308.15 K	791.49 ± 1.2
313.15 K	787.37 ± 1.2
318.15 K	783.22 ± 1.2
323.15 K	779.01 ± 1.2
328.15 K	774.73 ± 1.2
333.15 K	770.39 ± 1.2

COc1cc2c(cc1O)CC1c3c(cc(O)c(OC)c3-2)CCN1C (stereo not drawn) [boldine] + CCCCCCO
mass density [kg/m3], [2]
Conditions	x1 = 0.00308	x1 = 0.00633	x1 = 0.00958
283.15 K	831.02 ± 2.1	834.31 ± 2.1	837.66 ± 2.1
288.15 K	827.44 ± 2.1	830.73 ± 2.1	834.07 ± 2.1
293.15 K	823.83 ± 2.1	827.12 ± 2.1	830.46 ± 2.1
298.15 K	820.21 ± 2.1	823.49 ± 2.1	826.82 ± 2.1
303.15 K	816.56 ± 2.1	819.84 ± 2.1	823.16 ± 2.1
308.15 K	812.88 ± 2.1	816.16 ± 2.1	819.48 ± 2.1
313.15 K	809.17 ± 2.1	812.44 ± 2.1	815.76 ± 2.1
318.15 K	805.43 ± 2.1	808.7 ± 2.1	812.01 ± 2.1
323.15 K	801.65 ± 2.1	804.91 ± 2.1	808.22 ± 2.1
328.15 K	797.83 ± 2.1	801.09 ± 2.1	804.39 ± 2.1
333.15 K	793.97 ± 2.1	797.22 ± 2.1	800.51 ± 2.1

COc1cc2c(cc1O)CC1c3c(cc(O)c(OC)c3-2)CCN1C (stereo not drawn) [boldine] + CC(C)O
mass density [kg/m3], [2]
Conditions	x1 = 0.00187	x1 = 0.00371	x1 = 0.00563	x1 = 0.00735	x1 = 0.00957	x1 = 0.01158	x1 = 0.01364
283.15 K	796.84 ± 0.73	800.29 ± 0.73	803.77 ± 0.72	807.03 ± 0.72	810.42 ± 0.71	814.44 ± 0.71	818.2 ± 0.7
288.15 K	792.75 ± 0.74	796.21 ± 0.73	799.68 ± 0.73	802.94 ± 0.72	806.37 ± 0.72	810.34 ± 0.71	814.09 ± 0.71
293.15 K	788.61 ± 0.75	792.06 ± 0.74	795.53 ± 0.74	798.79 ± 0.73	802.25 ± 0.72	806.19 ± 0.72	809.91 ± 0.71
298.15 K	784.39 ± 0.75	787.84 ± 0.75	791.32 ± 0.74	794.57 ± 0.74	798.05 ± 0.73	801.97 ± 0.73	805.66 ± 0.72
303.15 K	780.11 ± 0.76	783.56 ± 0.75	787.04 ± 0.75	790.29 ± 0.74	793.78 ± 0.74	797.69 ± 0.73	801.36 ± 0.73
308.15 K	775.77 ± 0.77	779.22 ± 0.76	782.69 ± 0.76	785.94 ± 0.75	789.45 ± 0.75	793.35 ± 0.74	797.01 ± 0.73
313.15 K	771.34 ± 0.77	774.79 ± 0.77	778.25 ± 0.76	781.51 ± 0.76	785.03 ± 0.75	788.91 ± 0.75	792.59 ± 0.74
318.15 K	766.8 ± 0.78	770.26 ± 0.78	773.72 ± 0.77	776.98 ± 0.77	780.51 ± 0.76	784.38 ± 0.75	788.09 ± 0.75
323.15 K	762.17 ± 0.79	765.62 ± 0.78	769.08 ± 0.78	772.35 ± 0.77	775.88 ± 0.77	779.76 ± 0.76	783.56 ± 0.76
328.15 K	757.42 ± 0.8	760.87 ± 0.79	764.34 ± 0.79	767.61 ± 0.78	771.14 ± 0.78	775.02 ± 0.77	778.85 ± 0.76
333.15 K	752.55 ± 0.81	756.01 ± 0.8	759.48 ± 0.79	762.75 ± 0.79	766.27 ± 0.78	770.17 ± 0.78	773.99 ± 0.77
